Assay results: the CheMixHub ionic liquid set

Assay: xn = mol fraction of the nth substance listed

CCCC[n+]1ccn(C)c1.[Cl-] + CN(C)C=O
101 kPa
Conditions	electrical conductivity [S/m]	viscosity [mPa·s]
293.15 K, x2 = 0.9	–	3.4
298.15 K, x1 = 0.0172	–	0.98
298.15 K, x2 = 0.5541	0.322	41.1
298.15 K, x2 = 0.975	0.574	0.96
303.15 K, x2 = 0.5056	–	52.3
303.15 K, x2 = 0.6034	–	21.3
303.15 K, x2 = 0.7982	–	4.15
303.15 K, x2 = 0.9503	–	1.14
308.15 K, x1 = 0.0086	–	0.82
308.15 K, x2 = 0.8014	–	3.51
308.15 K, x2 = 0.8999	–	1.53
308.15 K, x2 = 0.974	–	0.94

[Cl][Al]([Cl])[Cl] + CC[n+]1ccn(C)c1.[Cl-]
101 kPa
Conditions	electrical conductivity [S/m]
263 K, frequency 0.1 MHz, x1 = 0.5455	0.14
263 K, frequency 0.1 MHz, x1 = 0.5652	0.13
263 K, frequency 0.1 MHz, x1 = 0.5833	0.57
263 K, frequency 0.1 MHz, x1 = 0.6	0.36
263 K, frequency 0.1 MHz, x1 = 0.6296	0.35
273 K, frequency 0.1 MHz, x1 = 0.5455	0.59
273 K, frequency 0.1 MHz, x1 = 0.5652	0.92
273 K, frequency 0.1 MHz, x1 = 0.5833	0.84
273 K, frequency 0.1 MHz, x1 = 0.6	0.53
273 K, frequency 0.1 MHz, x1 = 0.6296	0.52
283 K, frequency 0.1 MHz, x1 = 0.5238	1.24
283 K, frequency 0.1 MHz, x1 = 0.5455	1.34
283 K, frequency 0.1 MHz, x1 = 0.5652	1.33
283 K, frequency 0.1 MHz, x1 = 0.5833	1.13
283 K, frequency 0.1 MHz, x1 = 0.6	0.73
283 K, frequency 0.1 MHz, x1 = 0.6296	0.73
293 K, frequency 0.1 MHz, x1 = 0.5238	1.58
293 K, frequency 0.1 MHz, x1 = 0.5455	1.81
293 K, frequency 0.1 MHz, x1 = 0.5652	1.73
293 K, frequency 0.1 MHz, x1 = 0.6	0.96
293 K, frequency 0.1 MHz, x1 = 0.6296	0.99
303 K, frequency 0.1 MHz, x1 = 0.5238	2.05
303 K, frequency 0.1 MHz, x1 = 0.5455	2.47
303 K, frequency 0.1 MHz, x1 = 0.5652	2.3
303 K, frequency 0.1 MHz, x1 = 0.5833	1.89
303 K, frequency 0.1 MHz, x1 = 0.6	1.25
303 K, frequency 0.1 MHz, x1 = 0.6296	1.29
303.15 K, frequency 0 MHz, x1 = 0.6	1.92
303.15 K, frequency 0 MHz, x1 = 0.63	1.8
303.15 K, frequency 0 MHz, x1 = 0.67	1.64
306.15 K, frequency 1 MHz, x2 = 0.556	1.46
306.15 K, frequency 1 MHz, x2 = 0.67	0.409
313 K, frequency 0.1 MHz, x1 = 0.5238	2.58
313 K, frequency 0.1 MHz, x1 = 0.5652	2.95
313 K, frequency 0.1 MHz, x1 = 0.5833	2.34
313 K, frequency 0.1 MHz, x1 = 0.6	1.64
313 K, frequency 0.1 MHz, x1 = 0.6296	1.52
323 K, frequency 0.1 MHz, x1 = 0.5238	3.35
323 K, frequency 0.1 MHz, x1 = 0.5455	3.65
323 K, frequency 0.1 MHz, x1 = 0.5652	3.37
323 K, frequency 0.1 MHz, x1 = 0.5833	2.85
323 K, frequency 0.1 MHz, x1 = 0.6	2.18
323 K, frequency 0.1 MHz, x1 = 0.6296	1.83
333 K, frequency 0.1 MHz, x1 = 0.5238	4.09
333 K, frequency 0.1 MHz, x1 = 0.5455	3.96
333 K, frequency 0.1 MHz, x1 = 0.5652	4.11
333 K, frequency 0.1 MHz, x1 = 0.5833	3.04
333 K, frequency 0.1 MHz, x1 = 0.6	2.4
333 K, frequency 0.1 MHz, x1 = 0.6296	2.16
342.1 K, frequency 0.1 MHz, x1 = 0.5238	5.15
343 K, frequency 0.1 MHz, x1 = 0.5455	4.63
343 K, frequency 0.1 MHz, x1 = 0.5652	4.72
343 K, frequency 0.1 MHz, x1 = 0.5833	3.21
343 K, frequency 0.1 MHz, x1 = 0.6	2.82
343 K, frequency 0.1 MHz, x1 = 0.6296	2.49
352.1 K, frequency 0.1 MHz, x1 = 0.5238	6.3
353 K, frequency 0.1 MHz, x1 = 0.5652	5.34
353 K, frequency 0.1 MHz, x1 = 0.5833	4.2
353 K, frequency 0.1 MHz, x1 = 0.6	3.2
353 K, frequency 0.1 MHz, x1 = 0.6296	2.95
362.1 K, frequency 0.1 MHz, x1 = 0.6	3.69
363 K, frequency 0.1 MHz, x1 = 0.5238	6.4
363 K, frequency 0.1 MHz, x1 = 0.5455	5.69
363 K, frequency 0.1 MHz, x1 = 0.5652	5.87
363 K, frequency 0.1 MHz, x1 = 0.5833	4.33
363 K, frequency 0.1 MHz, x1 = 0.6296	3.3

101.3 kPa
Conditions	electrical conductivity [S/m]
270.1 K, x2 = 0.3333	0.533
270.4 K, x2 = 0.4348	0.75
270.6 K, x2 = 0.5556	0.36
271.1 K, x2 = 0.3636	0.6
271.1 K, x2 = 0.4	0.702
275.6 K, x2 = 0.4	0.822
275.6 K, x2 = 0.5263	0.832
275.6 K, x2 = 0.5556	0.471
276.1 K, x2 = 0.3333	0.711
276.1 K, x2 = 0.4348	0.901
277.1 K, x2 = 0.3636	0.798
280.6 K, x2 = 0.4348	1.01
281.1 K, x2 = 0.3636	0.946
281.1 K, x2 = 0.4	1.06
281.1 K, x2 = 0.4762	1.18
281.1 K, x2 = 0.5	1.28
281.1 K, x2 = 0.5263	1.03
281.1 K, x2 = 0.5556	0.595
282.1 K, x2 = 0.3333	0.896
288.15 K, x2 = 0.4348	1.34
290.15 K, x2 = 0.3636	1.33
290.15 K, x2 = 0.4762	1.59
290.65 K, x2 = 0.4	1.4
290.65 K, x2 = 0.5263	1.4
290.65 K, x2 = 0.5556	0.87
291.15 K, x2 = 0.5	1.83
292.15 K, x2 = 0.3333	1.23
303.15 K, x2 = 0.3333	1.65
303.15 K, x2 = 0.3636	1.82
303.15 K, x2 = 0.5263	1.93
303.15 K, x2 = 0.5556	1.33
304.15 K, x2 = 0.4762	2.42
304.15 K, x2 = 0.5	2.57
305.15 K, x2 = 0.4	2.03
305.15 K, x2 = 0.4348	2.24
309.15 K, x2 = 0.5556	1.57
312.65 K, x2 = 0.5263	2.46
314.15 K, x2 = 0.4348	2.69
314.65 K, x2 = 0.4	2.48
315.65 K, x2 = 0.3636	2.3
316.15 K, x2 = 0.3333	2.12
317.65 K, x2 = 0.4762	3.2
317.65 K, x2 = 0.5	3.3
320.15 K, x2 = 0.5556	2.21
321.15 K, x2 = 0.5263	3.01
323.15 K, x2 = 0.3333	2.46
323.15 K, x2 = 0.3636	2.64
323.15 K, x2 = 0.4	2.92
324.15 K, x2 = 0.4348	3.2
324.15 K, x2 = 0.4762	3.63
324.15 K, x2 = 0.5	3.79
330.15 K, x2 = 0.5556	2.71
331.15 K, x2 = 0.4	3.4
331.15 K, x2 = 0.5263	3.65
332.15 K, x2 = 0.4348	3.7
332.15 K, x2 = 0.4762	4.14
332.65 K, x2 = 0.5	4.37
333.15 K, x2 = 0.3333	2.93
334.15 K, x2 = 0.3636	3.18
341.15 K, x2 = 0.4348	4.28
342.15 K, x2 = 0.4	4.02
342.15 K, x2 = 0.4762	4.9
342.15 K, x2 = 0.5	5.03
342.15 K, x2 = 0.5263	4.39
343.15 K, x2 = 0.3333	3.38
343.15 K, x2 = 0.3636	3.64
344.15 K, x2 = 0.5556	3.63
350.65 K, x2 = 0.4	4.54
351.15 K, x2 = 0.4348	4.88
352.15 K, x2 = 0.5263	5.04
353.15 K, x2 = 0.3333	3.88
353.15 K, x2 = 0.3636	4.2
353.15 K, x2 = 0.4762	5.63
353.15 K, x2 = 0.5	5.79
353.15 K, x2 = 0.5556	4.27
361.15 K, x2 = 0.4	5.18
361.15 K, x2 = 0.4348	5.54
361.15 K, x2 = 0.4762	6.35
361.15 K, x2 = 0.5	6.43
363.15 K, x2 = 0.3333	4.45
363.15 K, x2 = 0.3636	4.8
363.15 K, x2 = 0.5263	5.91
364.15 K, x2 = 0.5556	5.09
370.15 K, x2 = 0.3333	4.82
370.15 K, x2 = 0.3636	5.19
371.15 K, x2 = 0.4	5.84
371.15 K, x2 = 0.4348	6.23
371.15 K, x2 = 0.4762	7.02
371.15 K, x2 = 0.5	7.19
372.15 K, x2 = 0.5263	6.56
374.15 K, x2 = 0.5556	5.89

CCCCCCCCn1cc[n+](C)c1.O=[N+]([O-])[O-] + CCCCO
101 kPa
Conditions	viscosity [mPa·s]
283.15 K, x2 = 0.168	770
293.15 K, x2 = 0.358	137
293.15 K, x2 = 0.57	38.5
293.15 K, x2 = 0.676	20.63
293.15 K, x2 = 0.848	7.8
298.15 K, x2 = 0.458	59.3
298.15 K, x2 = 0.57	31.8
298.15 K, x2 = 0.848	6.79
303.15 K, x2 = 0.458	47.9
303.15 K, x2 = 0.676	14.91
308.15 K, x2 = 0.358	64.5
308.15 K, x2 = 0.676	12.81
313.15 K, x2 = 0.168	123
313.15 K, x2 = 0.358	52.2
318.15 K, x2 = 0.358	42.8
323.15 K, x2 = 0.458	23.19
323.15 K, x2 = 0.57	14.15
323.15 K, x2 = 0.676	8.67
323.15 K, x2 = 0.848	3.61
328.15 K, x2 = 0.458	17.18

[Cl-].[NH4+] + CC(=O)[O-].CC[n+]1ccn(C)c1
101 kPa
Conditions	electrical conductivity [S/m]	viscosity [mPa·s]
298.15 K, x1 = 0.0505	0.234	172
303.15 K, x1 = 0.0505	0.308	124.6
313.15 K, x1 = 0.0999	0.431	91.7
313.15 K, x1 = 0.1702	0.341	142.8
318.15 K, x1 = 0.0505	0.622	55.4
323.15 K, x1 = 0.0505	0.755	44
